Assay results published in patent US12692262B2, “Substituted ureas as orexin receptor agonists” (Merck Sharp & Dohme LLC, priority 2020, dated 2026).

Target: T1, human OX2R (Homo sapiens, UniProt O43614)
T1 construct: expressed in transfected cells; host or cells: CHO (Chinese hamster ovary) cells grown under G418 selection
T1 sequence (O43614 1-444): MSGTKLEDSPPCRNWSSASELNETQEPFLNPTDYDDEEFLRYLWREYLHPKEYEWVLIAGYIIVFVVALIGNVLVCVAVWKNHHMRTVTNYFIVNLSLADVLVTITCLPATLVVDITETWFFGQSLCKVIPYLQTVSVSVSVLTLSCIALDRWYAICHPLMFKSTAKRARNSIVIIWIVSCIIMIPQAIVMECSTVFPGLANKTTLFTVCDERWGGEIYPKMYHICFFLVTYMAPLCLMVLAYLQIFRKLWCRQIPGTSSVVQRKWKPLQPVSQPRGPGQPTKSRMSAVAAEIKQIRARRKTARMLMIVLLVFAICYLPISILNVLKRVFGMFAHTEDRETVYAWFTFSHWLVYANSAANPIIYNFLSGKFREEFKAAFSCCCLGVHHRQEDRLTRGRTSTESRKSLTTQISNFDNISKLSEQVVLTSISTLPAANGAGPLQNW
Test: IPOne (IP-1 accumulation) assay in CHO cells expressing human OX2R
Assay type: cell-based
Conditions: for EC50: CHO cells expressing human OX2R, IP-One assay, 2 h incubation, four parameter logistic fit, read-out: OX2R Potency, EC50; for % of maximum agonist effect (relative to Orexin A): percent effect vs mean max effect of a reference compound at 1 uM (100% activity vs Orexin A), human OX2R
In short: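 Agonist EC50 values come from the inflection point of four-parameter logistic curves. Read-out is IP-1 accumulation detected with lysis buffer plus D2 and AB-cryptate reagents (HTRF), in CHO cells engineered to express human OX2R.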

| SMILES | EC50 [nM] | % of maximum agonist effect (relative to Orexin A) [%] |
| --- | --- | --- |
| CCN(C(=O)N[C@@H](CCC(F)(F)F)C(F)(F)F)C(c1ncc(OC)c(-c2cn3ccnc3c(OC)n2)n1)C(F)(F)F (stereo partly drawn) [Example 10-4, 1-ethyl-3-((S)-1,1,1,5,5,5-hexafluoropentan-2-yl)-1-(2,2,2-trifluoro-1-(5-methoxy-4-(8-methoxyimidazo[1,2-a]pyrazin-6-yl)pyrimidin-2-yl)ethyl)urea] | 1.3 | 100.7 |
| CCN(C(=O)N[C@@H](CCC(F)(F)F)C(F)(F)F)C(c1cnc(OC)c(-c2cn3ccnc3c(OC)n2)n1)C(F)(F)F (stereo partly drawn) [Example 10-5, 1-ethyl-3-((S)-1,1,1,5,5,5-hexafluoropentan-2-yl)-1-(2,2,2-trifluoro-1-(5-methoxy-6-(8-methoxyimidazo[1,2-a]pyrazin-6-yl)pyrazin-2-yl)ethyl)urea] | 2.5 | 101.6 |
| CCN(C(=O)N[C@@H](CCC(F)(F)F)C(F)(F)F)C(c1cc(-c2cn3ccnc3c(OC)n2)c(OC)c(C)n1)C(F)(F)F (stereo partly drawn) [Example 10-6, 1-ethyl-3-((S)-1,1,1,5,5,5-hexafluoropentan-2-yl)-1-(2,2,2-trifluoro-1-(5-methoxy-4-(8-methoxyimidazo[1,2-a]pyrazin-6-yl)-6-methylpyridin-2-yl)ethyl)urea] | 9.2 | 98.9 |
| CCN(C(=O)N[C@@H](CCC(F)(F)F)C(F)(F)F)C(c1cc(-c2cc(OC)c3nc(C#N)cn3c2)c(OC)cn1)C(F)(F)F (stereo partly drawn) [Example 10-7, 1-(1-(4-(2-cyano-8-methoxyimidazo[1,2-a]pyridin-6-yl)-5-methoxypyridin-2-yl)-2,2,2-trifluoroethyl)-1-ethyl-3-((S)-1,1,1,5,5,5-hexafluoropentan-2-yl)urea] | 1.5 | 102.7 |
| CCN(C(=O)N[C@@H](CCC(F)(F)F)C(F)(F)F)[C@@H](c1cc(-c2cc3scnc3c(OC)n2)c(OC)cn1)C(F)(F)F [Example 10-8, 1-ethyl-3-((S)-1,1,1,5,5,5-hexafluoropentan-2-yl)-1-((S)-2,2,2-trifluoro-1-(5-methoxy-4-(4-methoxythiazolo[4,5-c]pyridin-6-yl)pyridin-2-yl)ethyl)urea] | 2.3 | 100.7 |
| CCN(C(=O)N[C@@H](CCC(F)(F)F)C(F)(F)F)[C@@H](c1cc(-c2cn3cc(C)nc3c(OC)n2)c(OC)cn1)C(F)(F)F [Example 10-9, 1-ethyl-3-((S)-1,1,1,5,5,5-hexafluoropentan-2-yl)-1-((S)-2,2,2-trifluoro-1-(5-methoxy-4-(8-methoxy-2-methylimidazo[1,2-a]pyrazin-6-yl)pyridin-2-yl)ethyl)urea] | 2.7 | 102.5 |
| CCN(C(=O)N[C@@H](CCC(F)(F)F)C(F)(F)F)C(c1cc(-c2cn3ccnc3c(OC)n2)cc(OC)n1)C(F)(F)F (stereo partly drawn) [Example 10-16, 1-ethyl-3-((S)-1,1,1,5,5,5-hexafluoropentan-2-yl)-1-(2,2,2-trifluoro-1-(6-methoxy-4-(8-methoxyimidazo[1,2-a]pyrazin-6-yl)pyridin-2-yl)ethyl)urea] | 35.2 | 97.9 |
| CCN(C(=O)N[C@@H](CCC(F)(F)F)C(F)(F)F)C(c1cc(-c2cn3ccnc3c(OC)n2)cnc1OC)C(F)(F)F (stereo partly drawn) [Example 10-17, 1-ethyl-3-((S)-1,1,1,5,5,5-hexafluoropentan-2-yl)-1-(2,2,2-trifluoro-1-(2-methoxy-5-(8-methoxyimidazo[1,2-a]pyrazin-6-yl)pyridin-3-yl)ethyl)urea] | 88.8 | 100.5 |
| CCN(C(=O)N[C@@H](CCC(F)(F)F)C(F)(F)F)[C@H](C)c1cnc(C)c(-c2cn3ccnc3c(OC)n2)c1 [Example 10-18, 1-ethyl-3-((S)-1,1,1,5,5,5-hexafluoropentan-2-yl)-1-((R)-1-(5-(8-methoxyimidazo[1,2-a]pyrazin-6-yl)-6-methylpyridin-3-yl)ethyl)urea] | 11.9 | 99.8 |
| CCN(C(=O)N[C@@H](CCC(C)(F)F)C(F)(F)F)[C@H](C)c1cnc(OC)c(-c2cn3ccnc3c(OC)n2)c1 [Example 10-19, 1-ethyl-1-((R)-1-(6-methoxy-5-(8-methoxyimidazo[1,2-a]pyrazin-6-yl)pyridin-3-yl)ethyl)-3-((S)-1,1,1,5,5-pentafluorohexan-2-yl)urea] | 0.8 | 100.6 |
| CCN(C(=O)N[C@@H](CCC(F)(F)F)C(F)(F)F)C(c1cncc(-c2cn3ccnc3c(OC)n2)c1)C(F)(F)F (stereo partly drawn) [Example 10-22, 1-ethyl-3-((S)-1,1,1,5,5,5-hexafluoropentan-2-yl)-1-(2,2,2-trifluoro-1-(5-(8-methoxyimidazo[1,2-a]pyrazin-6-yl)pyridin-3-yl)ethyl)urea] | 76.9 | 99.4 |
| CC[C@H](CCC(F)(F)F)NC(=O)N(CC)[C@H](C)c1cc2c(c(-c3ccc4nccn4c3)c1)OCC2 [Example 11-1, 1-ethyl-1-((R)-1-(7-(imidazo[1,2-a]pyridin-6-yl)-2,3-dihydrobenzofuran-5-yl)ethyl)-3-((R)-6,6,6-trifluorohexan-3-yl)urea] | 5.6 | 97.4 |
| CC[C@H](CCC(F)(F)F)NC(=O)N(CC)[C@H](C)c1cc(-c2ccc3nccn3c2)c(OC)cc1F [Example 11-2, 1-ethyl-1-((R)-1-(2-fluoro-5-(imidazo[1,2-a]pyridin-6-yl)-4-methoxyphenyl)ethyl)-3-((R)-6,6,6-trifluorohexan-3-yl)urea] | 80.5 | 98.5 |
| CC[C@H](CCC(F)(F)F)NC(=O)N(CC)[C@H](C)c1ccc(Br)c(-c2ccc3nccn3c2)c1 [Example 11-3, 1-((R)-1-(4-bromo-3-(imidazo[1,2-a]pyridin-6-yl)phenyl)ethyl)-1-ethyl-3-((R)-6,6,6-trifluorohexan-3-yl)urea] | 129 | 91.8 |

Next, values leading:

| EC50 [nM] | % of maximum agonist effect (relative to Orexin A) [%] | SMILES |
| --- | --- | --- |
| 4.7 | 100.8 | CCN(C(=O)N[C@@H](CCC(F)(F)F)C(F)(F)F)C(c1cc(-c2cc(OC)c3nccn3n2)c(OC)cn1)C(F)(F)F (stereo partly drawn) [Example 10-10, 1-ethyl-3-((S)-1,1,1,5,5,5-hexafluoropentan-2-yl)-1-(2,2,2-trifluoro-1-(5-methoxy-4-(8-methoxyimidazo[1,2-b]pyridazin-6-yl)pyridin-2-yl)ethyl)urea] |
| 7.3 | 101.3 | CCN(C(=O)N[C@@H](CCC(F)(F)F)C(F)(F)F)C(c1cc(-c2cc(OC)c3ncccc3c2)c(OC)cn1)C(F)(F)F (stereo partly drawn) [Example 10-11, 1-ethyl-3-((S)-1,1,1,5,5,5-hexafluoropentan-2-yl)-1-(2,2,2-trifluoro-1-(5-methoxy-4-(8-methoxyquinolin-6-yl)pyridin-2-yl)ethyl)urea] |
| 70.1 | 100.5 | CCN(C(=O)N[C@@H](CCC(F)(F)F)C(F)(F)F)C(c1cc(-c2cn3c(C#N)cnc3c(OC)n2)c(OC)cn1)C(F)(F)F (stereo partly drawn) [Example 10-12, 1-(1-(4-(3-cyano-8-methoxyimidazo[1,2-a]pyrazin-6-yl)-5-methoxypyridin-2-yl)-2,2,2-trifluoroethyl)-1-ethyl-3-((S)-1,1,1,5,5,5-hexafluoropentan-2-yl)urea] |
| 132 | 101.7 | CCN(C(=O)N[C@@H](CCC(F)(F)F)C(F)(F)F)C(c1cc(-c2cc(OC)c3nccnc3c2)c(OC)cn1)C(F)(F)F (stereo partly drawn) [Example 10-13, 1-ethyl-3-((S)-1,1,1,5,5,5-hexafluoropentan-2-yl)-1-(2,2,2-trifluoro-1-(5-methoxy-4-(8-methoxyquinoxalin-6-yl)pyridin-2-yl)ethyl)urea] |
| 6.4 | 99.8 | CCN(C(=O)N[C@@H](CCC(F)(F)F)C(F)(F)F)[C@@H](c1cc(-c2cc(OC)c3[nH]cnc3c2)c(OC)cn1)C(F)(F)F [Example 10-15, 1-ethyl-3-((S)-1,1,1,5,5,5-hexafluoropentan-2-yl)-1-((S)-2,2,2-trifluoro-1-(5-methoxy-4-(7-methoxy-1H-benzo[d]imidazol-5-yl)pyridin-2-yl)ethyl)urea] |
| 0.7 | 101.0 | CCN(C(=O)N[C@@H](CCC(F)(F)F)C(F)(F)F)C(c1ccc(OC)c(-c2cn3ccnc3c(OC)n2)n1)C(F)(F)F (stereo partly drawn) [Example 10-20, 1-ethyl-3-((S)-1,1,1,5,5,5-hexafluoropentan-2-yl)-1-(2,2,2-trifluoro-1-(5-methoxy-6-(8-methoxyimidazo[1,2-a]pyrazin-6-yl)pyridin-2-yl)ethyl)urea] |
| 1.6 | 100.9 | CCN(C(=O)N[C@@H](CCC(F)(F)F)C(F)(F)F)[C@@H](c1cc(-c2cn3ccnc3c(OC)n2)c(C)cn1)C(F)(F)F [Example 10-21, 1-ethyl-3-((S)-1,1,1,5,5,5-hexafluoropentan-2-yl)-1-((S)-2,2,2-trifluoro-1-(4-(8-methoxyimidazo[1,2-a]pyrazin-6-yl)-5-methylpyridin-2-yl)ethyl)urea] |
